Assay results published in patent publication US5284853A, “Angiotensin II receptor blocking 2,3,6 substituted quinazolinones” (American Cyanamid Company, priority 1993, dated 1994).
Values joined by “and” are separate entries in the source; they are usually repeats but may differ in a detail not shown here. Identical values can stand only once.

Legend:
[1] = system: Angiotensin II (AII) vasopressor response; test: AII Challenge: antagonism of the angiotensin II vasopressor response in conscious SHR; assay type: in vivo, Spontaneously hypertensive rats (Male okamoto-Aoki SHR); details: 5 mg/kg I.V.; for Average Change / Inhibition: n = 2; for Change / Control Before AII / Response After AII: per rat
Excerpt: […] Conscious Male okamoto-Aoki SHR, 16-20 weeks old, weighing approximately 330 g are purchased from Charles River Labs (Wilmington, MA). Conscious rats are restrained in a supine position with elastic tape. The area at the base of the tail is locally anesthetized by subcutaneous infiltration with 2% procaine. […] The cannula is secured, heparinized (1,000 I.U./ml), sealed and the wound is closed. The animals are placed in plastic restraining cages in an upright position. The cannula is attached to a Statham P23Db pressure transducer, and pulsatile blood pressure is recorded to 10-15 minutes with a Gould Brush recorder. (Chan et al., (Drug Development Res., 18:75-94, 1989). […] Co., St. […] […] […] […] […] A compound is considered active if at 30 mg/kg i.v. it antagonized at least 50% of the response.

Angiotensin II Receptor = target: T1, Angiotensin II Receptor (Bos taurus, UniProt P25104); test: Receptor binding assay: competition of [^125 I](Sar^1,Ile^8)AngII binding to beef adrenal cortex microsomal membranes; details: 60 min, room temperature, pH 7.4
T1 construct: The brownish tissue forming the adrenal cortex is scraped off and finely minced with scissors before homogenization; tissue local slaughter house (Maxwell-Cohen); host or cells: beef adrenal cortex, microsomal membranes (100,000×g pellet)
T1 sequence (P25104 1-359): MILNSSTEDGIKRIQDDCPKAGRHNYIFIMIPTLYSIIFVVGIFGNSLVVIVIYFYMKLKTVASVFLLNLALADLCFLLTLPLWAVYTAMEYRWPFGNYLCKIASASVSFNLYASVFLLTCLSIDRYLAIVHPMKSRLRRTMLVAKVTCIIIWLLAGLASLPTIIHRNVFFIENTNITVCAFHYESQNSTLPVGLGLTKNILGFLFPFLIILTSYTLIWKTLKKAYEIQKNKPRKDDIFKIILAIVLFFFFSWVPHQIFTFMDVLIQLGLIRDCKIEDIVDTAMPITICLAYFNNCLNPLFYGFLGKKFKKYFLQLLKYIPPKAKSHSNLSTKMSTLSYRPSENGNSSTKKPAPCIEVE
Excerpt: Beef adrenals are obtained from a local slaughter house (Maxwell-Cohen). [^125 […]. 2200 Ci/mmole, is purchased from Dupont (KEN@, Boston, Mass.). All unlabeled AngII analogs, Dimethylsulfoxide (DMSO), nucleotides, bovine serum albumin (BBA) are purchased from Sigma Chemical Co., St. Louis, MO U.S.A. Approximately sixteen (16) to twenty (20) beef adrenal glands are processed as follows: fresh adrenal glands received on crushed ice are cleaned of fatty tissues and the tough membranes encapsulating the glands are removed and discarded. The brownish tissue forming the adrenal cortex is scraped off and finely minced with scissors before homogenization care is taken to avoid contamination with medullary tissue during dissection. […] Unless otherwise indicated, all subsequent operations are done at […]. […] The homogenate is centrifuged first at low speed (3,000×g) for 10 min. […] This P2 pellet is discarded and the liquid phase is carefully decanted off in clean centrifuge tubes and recentrifuged at high speed (100,000×g) for 60 min. The translucent final pellet is harvested and combined in a small volume (20-50.0 ml) of […] Tris.HCl buffer, pH 7.2. A 100 ul aliquot is withdrawn and the protein content of the preparation is determined by the Lowry's method (Lowry, O. H., Rosebrough, N. P., Parr, A. L. and Randall, R. J., Protein measurement with Folin phenol reagent. J. Biol. Chem., […], 265-275, 1951). The pelleted membrane is reconstituted in 50.0 mM Tris.HCl buffer containing 0.1 mM of phenylmethylsulfonyl fluoride (PMSF) to give approximately a protein concentration of 2.5 mg per ml of tissue suspension. […] In competition studies, experimental compounds are diluted in dimethylsulfoxide (DMSO) and added in 20 ul to wells before the introduction of tissue membranes. This concentration of DMSO is found to have no negative effects on the binding of [^125 I] ([…] to the membranes. Assays are performed in triplicate. The wells are left undisturbed for 60 min. at room temperature. Following incubation, all wells are harvested at once with a Brandel® Harvester especially designed for a 96 well plate (Brandel® Biomedical Research & Development Labs. Inc., Gaithersburg, MD, U.S.A.). The filter discs are washed with 10×1.0 ml of cold 0.9% NaCl to remove unbound ligand. Presoaking the filter sheet in 0.1% polyethyleneimine in normal saline (PEI/Saline) greatly reduces the radioactivity retained by the filter blanks. This method is routinely used. The filters are removed from the filter grid and counted in a Parkard® Cobra Gamma Counter for 1 min. (Packard Instrument Co., Downers Grove, Ill, U.S.A.). The binding data are analyzed by the non-linear interactive "LUNDON-11" program (LUNDON SOFTWARE Inc., Cleveland, OH U.S.A.).

[2] = AII 0.05 mcg/kg IV, 30 min post dose
[3] = AII 0.05 mcg/kg IV, 60 min post dose
[4] = AII 0.05 mcg/kg IV, 90 min post dose
[5] = AII 0.05 mcg/kg IV, 180 min post dose
[6] = AII 0.1 mcg/kg IV, 30 min post dose
[7] = AII 0.1 mcg/kg IV, 60 min post dose
[8] = AII 0.1 mcg/kg IV, 90 min post dose
[9] = AII 0.1 mcg/kg IV, 120 min post dose
[10] = AII 0.1 mcg/kg IV, 180 min post dose
[11] = AII 0.5 mcg/kg IV, 120 min post dose

In the case of CCCCc1nc2ccc(C3CC(c4ccc(C)s4)=NO3)cc2c(=O)n1Cc1ccc(-c2ccccc2-c2nnn[nH]2)cc1 (stereo not drawn) [Example 21], the “Average Change” value [1, 2] is reported as 13.5 mmhg, the Inhibition [1, 2] is reported as 72% and the Change [1, 2] is reported as 17 mmhg and 10 mmhg. For the same compound, the “Control Before AII” value [1, 2] was 188 mmhg and 180 mmhg, the “Response After AII” value [1, 2] was 205 mmhg and 190 mmhg and the “Average Change” value [1, 3] was 25 mmhg. The Inhibition [1, 3] was 47%, the Change [1, 3] was 35 mmhg and 15 mmhg and the “Control Before AII” value [1, 3] was 175 mmhg. The “Response After AII” value [1, 3] was 210 mmhg and 190 mmhg, the “Average Change” value [1, 4] was 24 mmhg and the Inhibition [1, 4] was 49%. The Change [1, 4] was 25 mmhg and 23 mmhg, the “Control Before AII” value [1, 4] was 170 mmhg and 157 mmhg and the “Response After AII” value [1, 4] was 195 mmhg and 180 mmhg. The “Average Change” value [1, 5] was 30 mmhg, the Inhibition [1, 5] was 37% and the Change [1, 5] was 40 mmhg and 20 mmhg. For the same compound, the “Control Before AII” value [1, 5] was 170 mmhg and 160 mmhg, the “Response After AII” value [1, 5] was 210 mmhg and 180 mmhg and the “Average Change” value [1, 6] was 27.5 mmhg. For the same compound, the Inhibition [1, 6] was 41%, the Change [1, 6] was 30 mmhg and 25 mmhg and the “Control Before AII” value [1, 6] was 180 mmhg and 175 mmhg. The “Response After AII” value [1, 6] was 210 mmhg and 200 mmhg, the “Average Change” value [1, 7] was 34 mmhg and the Inhibition [1, 7] was 28%. The Change [1, 7] was 38 mmhg and 30 mmhg, the “Control Before AII” value [1, 7] was 175 mmhg and 165 mmhg and the “Response After AII” value [1, 7] was 213 mmhg and 195 mmhg. The “Average Change” value [1, 8] was 31 mmhg, the Inhibition [1, 8] was 34% and the Change [1, 8] was 40 mmhg and 22 mmhg. For the same compound, the “Control Before AII” value [1, 8] was 175 mmhg and 163 mmhg, the “Response After AII” value [1, 8] was 215 mmhg and 185 mmhg and the “Average Change” value [1, 9] was 31.5 mmhg. For the same compound, the Inhibition [1, 9] was 33%, the Change [1, 9] was 40 mmhg and 23 mmhg and the “Control Before AII” value [1, 9] was 175 mmhg and 160 mmhg. For the same compound, the “Response After AII” value [1, 9] was 215 mmhg and 183 mmhg, the “Average Change” value [1, 10] was 40 mmhg and the Inhibition [1, 10] was 15%. For the same compound, the Change [1, 10] was 50 mmhg and 30 mmhg, the “Control Before AII” value [1, 10] was 175 mmhg and 160 mmhg and the “Response After AII” value [1, 10] was 225 mmhg and 190 mmhg. The “Average Change” value [1, 11] was 27.5 mmhg, the Inhibition [1, 11] was 42% and the Change [1, 11] was 35 mmhg and 20 mmhg. For the same compound, the “Control Before AII” value [1, 11] was 185 mmhg and 160 mmhg, the “Response After AII” value [1, 11] was 220 mmhg and 180 mmhg and the IC50 (Angiotensin II Receptor) was 0.33 µM.
